From PubChem BioAssay AID485340 (Southern Research Specialized Biocontainment Screening …, 2010)
The source made the active and inactive calls. How the calls were made is not given here.

Tested on: M. tuberculosis growth, meropenem IC50 shift with compound
Assay: confirmation, meropenem IC50 shift (AID 485340);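 further: growth read after one week of culture plus overnight Alamar Blue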
[1] = compound alone IC50 vs Mtb, compound dose (near its own IC50) 4.69 µM
[2] = compound dose (near its own IC50) 4.69 µM
[3] = compound alone IC50 vs Mtb, compound dose (near its own IC50) 1.18 µM
[4] = compound dose (near its own IC50) 1.18 µM
[5] = compound alone IC50 vs Mtb, compound dose (near its own IC50) 9.38 µM
[6] = compound dose (near its own IC50) 9.38 µM
[7] = compound alone IC50 vs Mtb, compound dose (near its own IC50) 2.35 µM
[8] = compound dose (near its own IC50) 2.35 µM

COc1cc(C(=O)N/N=C/c2ccc(OC(=O)c3cccc(C)c3)cc2)ccc1O
IC50 [1]: 4.54 µM | IC50 [2]: 4.14 µM (inactive)

CCc1ccc2nc(/N=C(\N)NC(=O)c3ccccc3)nc(C)c2c1
IC50 [3]: 1.02 µM | IC50 [4]: 4.22 µM (inactive)

O=C(COC(=O)C1=COCCO1)Nc1ccc2c(c1)OCO2
IC50 [1]: 3.86 µM | IC50 [2]: 4.01 µM (inactive)

Cc1ccc(CC(=O)Nc2nc3ccccc3[nH]2)cc1C
IC50 [1]: 6.31 µM | IC50 [2]: 4.04 µM (inactive)

CCc1ccc(NC(=O)c2c(Cl)nc(C)c(Cl)c2C)cc1
IC50 [5]: 7.1 µM | IC50 [6]: 7.77 µM (inactive)

Nc1c2c(nc3sc4c(c13)CCCC4)-c1ccccc1CC2
IC50 [1]: 6.11 µM | IC50 [2]: 6.03 µM (inactive)

CC(C)Cn1c2c(c(O)c(C(=O)Nc3nccs3)c1=O)CCCC2
IC50 [7]: 3.22 µM | IC50 [8]: 4.05 µM (inactive)

CCNC(=S)N/N=C1\C(=O)c2cccc3cccc1c23
IC50 [1]: 5.46 µM | IC50 [2]: 4.97 µM (inactive)

O=C(CC12CC3CC(CC(C3)C1)C2)NCc1ccc(F)cc1
IC50 [5]: 7.43 µM | IC50 [6]: 7.53 µM (inactive)

O=C(CCS(=O)(=O)c1ccc(F)cc1)Nc1nnc(-c2cccs2)o1
IC50 [7]: 2.94 µM | IC50 [8]: 5.51 µM (inactive)

COc1ccc(Cl)cc1NC(=O)C/C(C)=N/NC(=O)CC#N
IC50 [5]: 7.99 µM | IC50 [6]: 2.83 µM (inactive)

CC(=O)Nc1cccc(/C(C)=N/NC(N)=S)c1
IC50 [5]: 7.9 µM | IC50 [6]: 2.08 µM (inactive)

O=c1c(O)c(-c2ccc3c(c2)OCO3)oc2ccccc12
IC50 [7]: 2.12 µM | IC50 [8]: 7.4 µM (inactive)

O=C(COC(=O)C1CC1)c1c[nH]c2ccccc12
IC50 [3]: 0.999 µM | IC50 [4]: 4.65 µM (inactive)

COC(=O)c1c(C)n(-c2ccccc2)c2ccc(O)cc12
IC50 [3]: 1.53 µM | IC50 [4]: 6.07 µM (inactive)

Cc1[nH]n(-c2ccccc2)c(=O)c1/C=N/NC(=O)c1ccoc1C
IC50 (compound alone IC50 vs Mtb, compound dose (near its own IC50) 0.59 µM): 0.655 µM | IC50 (compound dose (near its own IC50) 0.59 µM): 7.56 µM (inactive)

Cc1ccc(-c2nc3[nH]c(=O)cc(NC(=O)C(C)C)n3n2)cc1
IC50 [5]: 7.36 µM | IC50 [6]: 3.83 µM (inactive)

CCOc1ccc2c(c1)c(C(C)=O)c(C)n2-c1ccccc1
IC50 (compound alone IC50 vs Mtb, compound dose (near its own IC50) 0.15 µM): 0.2 µM | IC50 (compound dose (near its own IC50) 0.15 µM): 3.86 µM (inactive)

COc1ccc(-c2cc(C(N)=O)nc(N3CCCCCC3)n2)cc1
IC50 [1]: 3.95 µM | IC50 [2]: 4.05 µM (inactive)

CCOC(=O)Cn1c(=NC(=O)C2CC2)sc2c(C)cc(C)cc21
IC50 [5]: 9.84 µM | IC50 [6]: 3.54 µM (inactive)

Cc1nn(-c2ccccc2)cc1/C=N/NC(N)=S
IC50 [1]: 3.7 µM | IC50 [2]: 2.68 µM (inactive)

COc1c(F)c(F)c(C(=O)Nc2c(C)cc(Br)cc2C)c(F)c1F
IC50 [1]: 4.58 µM | IC50 [2]: 5.02 µM (inactive)
